From patent EP4782437A1, “HETEROARYL COMPOUND, AND PREPARATION METHOD THEREFOR AND USE THEREOF IN MEDICINE” (Jiangsu Hengrui Pharmaceuticals Co., Ltd., priority 2023, dated 2025)
pIC50: −log10 of the molar value.

Molecular target: T1, BTK recombinant human protein (Homo sapiens, UniProt Q06187)
T1 construct: purchased Thermo PV3363
Assay: Inhibitory activity against BTK (HTRF KinEASE-TK kit)
Type: biochemical
Conditions: 2 nM BTK, 10 µM ATP, 0.5 hours preincubation at 25°C; read-out: IC50 values of inhibitory activity against BTK
Protocol: Test example 1: Inhibitory activity of compounds of the present disclosure against BTK • I. Experimental materials and instruments • 1. BTK recombinant human protein (Thermo, PV3363) • 2. HTRF KinEASE-TK kit (Cisbio, 62TK0PEC) • 3. 1 M MgCl2 (Thermo, AM9530G) • 4. 1 M MnCl2 (Sigma, M1787-100ML) • 5. Adenosine 5'-triphosphate (ATP) (New England Biolabs, P0756L) • 6. DTT 2M (Sangon Biotech, B645939) • 7. Ultrapure water (Invitrogen, 10977-015) • 8. OptiPlate-384, white opaque 384-well microplate (PerkinElmer, 6007290) • 9. 96-well round-bottom plate (Corning, 3788) • 10. Biochemical incubator (Shanghai Boxun Medical & Biological Instruments Co., Ltd., BSP-100) • 11. 15-mL centrifuge tube (Corning) • 12. Benchtop high-speed centrifuge (Changsha Yingtai Instrument Co., Ltd., TD4N) • 13. Multifunctional microplate reader (PerkinElmer, EnVision) • 14. Bravo liquid handling platform (Agilent Technologies, SGC120TH34702) • II. Experimental procedure
The HTRF KinEASE-TK kit is designed to detect changes in BTK enzyme activity based on two technologies, i.e., fluorescence resonance energy transfer and time-resolved fluorescence. The kit is operated in two stages: 1) enzyme reaction stage: the enzyme reaction is initiated by adding ATP, where the enzyme phosphorylates the substrate, and the compounds are then added to competitively bind to BTK against ATP, thereby inhibiting substrate phosphorylation; and 2) detection stage: after the enzyme reaction is complete, a detection reagent is added to terminate the reaction. Different groups on the phosphorylated substrate bind to the energy donor and energy acceptor, respectively, bringing the two into close proximity. During the instrumental readout, the energy donor is excited by an external light source, which enables resonance energy transfer to the proximal energy acceptor. The acceptor, in turn, becomes excited and emits light at a specific wavelength. Thus, changes in enzyme activity can be detected by measuring the signal values, and the inhibition rate of the compounds against the target enzyme can be calculated, thereby evaluating the inhibitory effect of the compounds on BTK enzyme activity.
Preparation of enzyme reaction buffer: 5× Kinase Buffer was diluted 5-fold with ultrapure water, and then the stock solutions of MgCl2, MnCl2 and DTT were added. The final composition of the buffer was as follows: 1× Kinase Buffer, 10 mM MgCl2, 1 mM MnCl2, and 1 mM DTT.
(§1) Preparation of 5 × BTK working solution: The BTK (5.17 µM) stock solution was removed from -20°C storage. Given that the BTK concentration in the enzyme reaction system was 2 nM and the concentration of the 5× working solution was 10 nM, the BTK stock solution was diluted 517-fold with the enzyme reaction buffer according to the volume required for the experiment. The diluted solution was then added to the 384-well plate at 2 µL per well. The plate was placed in a plate spinner and centrifuged at 2000 rpm for 1 minute to bring the liquid to the bottom of the wells.
as §1, with “[…]. Given” for “Preparation of 5 × BTK working solution: The BTK (5.17 µM) stock solution was removed from -20°C storage. Given”, “the SEB” for “the BTK”, “was 50” for “was 2”, “was 250” for “was 10”, “diluted 10-fold” for “diluted 517-fold”
The test compounds dissolved in 100% DMSO at 20 mM were diluted with 100% DMSO to a concentration of 200 µM, which represents the 200× concentration of the highest compound concentration point in the reaction system. The compounds at this concentration were then subjected to 10-point 3-fold serial dilution with 100% DMSO. The positive control wells and negative control wells were set with 100% DMSO. […]

T1 sequence (Q06187 whole entry): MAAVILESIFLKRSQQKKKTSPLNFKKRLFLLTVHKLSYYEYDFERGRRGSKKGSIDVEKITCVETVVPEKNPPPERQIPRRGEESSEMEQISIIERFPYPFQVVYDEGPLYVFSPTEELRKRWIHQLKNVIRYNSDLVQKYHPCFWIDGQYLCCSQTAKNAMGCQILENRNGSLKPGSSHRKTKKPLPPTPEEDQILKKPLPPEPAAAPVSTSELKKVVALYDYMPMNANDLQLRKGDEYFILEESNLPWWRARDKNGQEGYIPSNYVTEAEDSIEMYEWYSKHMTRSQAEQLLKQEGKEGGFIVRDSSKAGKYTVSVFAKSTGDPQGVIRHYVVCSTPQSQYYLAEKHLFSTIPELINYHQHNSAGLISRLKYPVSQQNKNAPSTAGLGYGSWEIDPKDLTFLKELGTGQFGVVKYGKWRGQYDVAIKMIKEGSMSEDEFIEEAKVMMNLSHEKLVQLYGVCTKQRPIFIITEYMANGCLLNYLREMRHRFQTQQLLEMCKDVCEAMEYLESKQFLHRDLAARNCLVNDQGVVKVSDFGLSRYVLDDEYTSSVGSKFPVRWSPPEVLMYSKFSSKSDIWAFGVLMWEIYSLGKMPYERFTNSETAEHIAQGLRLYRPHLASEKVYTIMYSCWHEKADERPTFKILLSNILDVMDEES

`C=CC(=O)N(C)CCOc1c(N)ncnc1-c1cc(F)cc(NC(=O)c2cc3c(cc2F)C2(CC2)CO3)c1C` [Example 3, N-(3-(6-amino-5-(2-(N-methacrylamido)ethoxy)pyrimidin-4-yl)-5-fluoro-2-methylphenyl)-5-fluoro-2H-spiro[benzofuran-3,1'-cyclopropane]-6-carboxamide] was tested, and the pIC50 was 8.08.
